# Legend:
# Test in all cases: Broth microdilution MIC (Example 12)
# Escherichia coli = test system: Escherichia coli
# Klebsiella pneumoniae = test system: Klebsiella pneumoniae
# Pseudomonas aeruginosa = test system: Pseudomonas aeruginosa
# Acinetobacter baumannii = test system: Acinetobacter baumannii
structure (smiles),measurement,setting,value
CC(C)(O/N=C(\C(=O)N[C@@H]1C(=O)N2C(C(=O)[O-])=C(C[n+]3ccccc3)CS[C@H]12)c1csc(N)n1)C(=O)O [CAZ],MIC,"Escherichia coli; E. coli ATCC 35218, ESBL",0.12 µg/mL
same,MIC,"Escherichia coli; E. coli ATCC 35218, QC organism (Table 102)",0.12 µg/mL
same,MIC,"Escherichia coli; E. coli ATCC BAA-2471, NDM",>64 µg/mL
same,MIC,"Escherichia coli; E. coli CDC 114, ESBL/KPC",>64 µg/mL
same,MIC,"Escherichia coli; E. coli CDC 118, ESBL/NDM",>64 µg/mL
same,MIC,"Escherichia coli; E. coli CDC 435, NDM",>64 µg/mL
same,MIC,"Escherichia coli; E. coli CDC 451, KPC",64 µg/mL
same,MIC,"Escherichia coli; E. coli CDC 503, ESBL/NDM",>64 µg/mL
same,MIC,"Escherichia coli; E. coli MMX 5745, KPC",32 µg/mL
same,MIC,"Escherichia coli; E. coli MMX 5755, ESBL",>64 µg/mL
same,MIC,"Escherichia coli; E. coli MMX 5756, ESBL",>64 µg/mL
same,MIC,"Escherichia coli; E. coli MMX 5758, ESBL",16 µg/mL
same,MIC,"Klebsiella pneumoniae; K. pneumoniae ATCC BAA-1705, ESBL/KPC",>64 µg/mL
same,MIC,"Klebsiella pneumoniae; K. pneumoniae ATCC BAA-1705, QC organism (Table 102)",>64 µg/mL
same,MIC,"Klebsiella pneumoniae; K. pneumoniae CDC 112, KPC",>64 µg/mL
same,MIC,"Klebsiella pneumoniae; K. pneumoniae CDC 113, ESBL/KPC",>64 µg/mL
same,MIC,"Klebsiella pneumoniae; K. pneumoniae CDC 115, ESBL/KPC",>64 µg/mL
same,MIC,"Klebsiella pneumoniae; K. pneumoniae CDC 120, ESBL/KPC",>64 µg/mL
same,MIC,"Klebsiella pneumoniae; K. pneumoniae CDC 126, ESBL/KPC",4 µg/mL
same,MIC,"Klebsiella pneumoniae; K. pneumoniae CDC 129, ESBL/KPC",>64 µg/mL
same,MIC,"Klebsiella pneumoniae; K. pneumoniae CDC 135, ESBL/VIM",>64 µg/mL
same,MIC,"Klebsiella pneumoniae; K. pneumoniae CDC 138, ESBL/NDM",>64 µg/mL
same,MIC,"Klebsiella pneumoniae; K. pneumoniae CDC 158, ESBL/NDM/OXA",>64 µg/mL
same,MIC,"Klebsiella pneumoniae; K. pneumoniae MMX 9029, ESBL",4 µg/mL
same,MIC,"Pseudomonas aeruginosa; P. aeruginosa CDC 230, VIM/OXA",64 µg/mL
same,MIC,"Pseudomonas aeruginosa; P. aeruginosa CDC 231, KPC/OXA",>64 µg/mL
same,MIC,"Pseudomonas aeruginosa; P. aeruginosa CDC 241, IMP/OXA",>64 µg/mL
same,MIC,"Pseudomonas aeruginosa; P. aeruginosa CDC 246, NDM/OXA",>64 µg/mL
same,MIC,"Pseudomonas aeruginosa; P. aeruginosa CDC 250, NDM/OXA",>64 µg/mL
same,MIC,"Pseudomonas aeruginosa; P. aeruginosa CDC 356, KPC",64 µg/mL
same,MIC,"Pseudomonas aeruginosa; P. aeruginosa CDC 439, IMP",>64 µg/mL
same,MIC,"Pseudomonas aeruginosa; P. aeruginosa CDC 444, VIM",32 µg/mL
same,MIC,"Pseudomonas aeruginosa; P. aeruginosa CDC 457, VIM",>64 µg/mL
same,MIC,"Pseudomonas aeruginosa; P. aeruginosa CDC 516, KPC/AmpC",64 µg/mL
same,MIC,"Pseudomonas aeruginosa; P. aeruginosa CDC 518, KPC/AmpC",32 µg/mL
same,MIC,"Acinetobacter baumannii; A. baumannii CDC 273, ESBL/OXA",64 µg/mL
same,MIC,"Acinetobacter baumannii; A. baumannii CDC 274, ESBL/OXA",>64 µg/mL
same,MIC,"Acinetobacter baumannii; A. baumannii CDC 275, ESBL/OXA",>64 µg/mL
same,MIC,"Acinetobacter baumannii; A. baumannii CDC 277, ESBL/OXA",>64 µg/mL
same,MIC,"Acinetobacter baumannii; A. baumannii CDC 284, ESBL/OXA",64 µg/mL
same,MIC,"Acinetobacter baumannii; A. baumannii CDC 307, OXA",64 µg/mL
same,MIC,"Acinetobacter baumannii; A. baumannii CDC 308, ESBL/OXA",64 µg/mL
same,MIC,"Acinetobacter baumannii; A. baumannii CDC 311, OXA",>64 µg/mL
same,MIC,"Acinetobacter baumannii; A. baumannii CDC 312, OXA",>64 µg/mL
same,MIC,"Acinetobacter baumannii; A. baumannii CDC 313, ESBL/OXA",>64 µg/mL
same,MIC,"Acinetobacter baumannii; A. baumannii NCTC 13304, OXA",>64 µg/mL

# From patent US11464749B2, “Bismuth-thiol compositions and methods of use” (Microbion Corporation, priority 2018, dated 2022)
